Laboratory results taken from patent US20250243176A1, “(S)-1-(1-ACRYLOYLPIPERIDIN-3-YL)-2-FLUORO-5,6,7,8,9,10-HEXAHYDROCYCLO HEPTA[B]INDOLE-4-CARBOXAMIDE, AND RELATED CRYSTALLINE FORMS, COMPOSITIONS, AND METHODS THEREOF” (GB005, Inc., priority 2021, published 2025).

Legend:
[1] = Phase 1 multiple ascending dose plasma pharmacokinetics; type: in vivo; details: both sexes, human, oral, MAD cohort, 15 mg once daily for 10 days, fed
349 kinases = assay: Kinome scan, panel; type: biochemical; details: kinome scan against 349 kinases
Source text: (§1) (S)-1-(1-acryloylpiperidin-3-yl)-2-fluoro-5,6,7,8,9,10-hexahydrocyclohepta[b]indole-4-carboxamide, hereinafter referred to as “Compound 1”, is an orally available, selective, potent inhibitor of Bruton's tyrosine kinase (BTK), thereby providing potential treatment options in BTK-driven diseases. The potency of Compound 1 for BTK inhibition is in the nM range in both cell-free enzymatic and whole blood functional assays.

[2] = Phase 1 multiple ascending dose plasma pharmacokinetics; type: in vivo, human; details: for Tmax / half-life / Cmax / AUC(0-inf): fed; for half-life / Cmax / AUC(0-inf): human, plasma, oral; for half-life: 15 mg; for AUC(0-inf): read-out: AUC0-inf or tau
Source text: (§2) Part A is a randomized, double-blind, placebo-controlled, single- and -multiple-dose study with staggered dose escalation, administered in the fed state (standard moderate-fat meal). Part A consists of […] (up to 7 single-ascending dose [SAD] cohorts [Cohorts 1-6 & 14], and up to 3 multiple ascending dose [MAD] cohorts [Cohorts 7-9]). Subjects are randomized in a 3:1 ratio per cohort to receive either: Compound 1 Formulation A (N=6 for Cohorts 1-4 and N=9 for Cohorts 5-9 & 14); or placebo (PBO; N=2 for Cohorts 1-4 and N=3 for Cohorts 5-9 & 14).
• Cohorts 7 and 8: Day 1, all subjects begin once-daily multiple dose administration of Formulation A Compound 1 or placebo for 10 days. • Cohort 9: Day −1, all subjects receive placebo. • Day 1, all subjects begin once-daily multiple dose administration of • Compound 1 or placebo for 10 days.
Results: Preliminary pharmacokinetic results from 1 completed MAD cohort are presented, including 12 subjects receiving 15 mg once daily for 10 days randomized in a 3:1 ratio to receive Compound 1 or placebo) in a fed state (moderate-fat meal). […] Preliminary PK parameters are presented in Table 47 (all pharmacokinetic parameters of […] are reported as Mean (% coefficient of variation), except for Tmax and t1/2, which are reported as Median (Min, Max), and in FIG. 27 showing single and multiple dose plasma profiles (Mean±SD).

[3] = Phase 1 single ascending dose plasma pharmacokinetics; type: in vivo, human; details: for AUC(0-inf) / Cmax / half-life / Tmax: both sexes, human, plasma, fed; for AUC(0-inf) / Cmax: mean; for dose proportionality of exposure (AUCinf): single dose
Description: The study investigates the administration of Compound 1 to healthy human subjects, to evaluate the safety, tolerability and PK of single and multiple-escalating doses. Additional objectives include assessing the effect of formulation on PK, the effect of food on PK, the effect of a CYP3A inhibitor on PK and the effect of Compound 1 on CYP3A activity. PK parameters including AUC, AUC, Cmax, and Tmax are determined. An additional exploratory objective evaluates pharmacodynamics, as the time-course of BTK inhibition. The study is conducted with up to 144 healthy male and female subjects, aged 18-55 years, with a body weight over 48 kg, BMI 18.5-30.0 kg/m^2, with no clinically significant abnormalities.
as §2
• Cohorts 1-4: Day 1, all subjects receive a single dose of Formulation A Compound 1 or placebo. • Cohorts 5, 6 & 14: Day −1, all subjects receive placebo (establish baseline ECG assessments). Day 1, subjects receive a single oral dose of Compound 1 or placebo.
Safety is assessed throughout the study and PK and PD are characterized using serial blood samples collected up to 48 hours post-dose for Compound 1 plasma concentrations, BTK target occupancy (TO) and target engagement (TE). Cerebrospinal fluid (CSF) samples are collected at 2 hours post-dose to characterize the relationship between Compound 1 plasma concentrations and CNS penetrance (CSF/Unbound plasma concentration). Compound 1 PK parameters (e.g., AUClast, AUCinf, Cmax, Tmax, t1/2) are estimated by standard noncompartmental methods.
Results: Preliminary pharmacokinetic results from […] are presented, including […] (7 receiving 5 mg, 8 receiving 15 mg, 8 receiving 45 mg, 8 receiving 5 mg+10 mg placebo, 12 receiving 100 mg and 12 receiving 200 mg: randomized in a 3:1 ratio to receive Compound 1 or placebo) in a fed state (moderate-fat meal). […] Preliminary PK parameters are presented in Table 45 (all pharmacokinetic parameters of Table 45 are reported as Mean (% coefficient of variation), except for Tmax and t/2, which are reported as Median (Min, Max)), and in FIG. 25 presenting the mean (SD) plasma concentration-time profiles of Compound 1.

[4] = CNS penetration (background statement)
Source text: as §1

TXK = molecular target: T1, TXK (Homo sapiens, UniProt P42681); assay: Kinome scan, TXK; type: biochemical
T1 sequence (P42681 1-527): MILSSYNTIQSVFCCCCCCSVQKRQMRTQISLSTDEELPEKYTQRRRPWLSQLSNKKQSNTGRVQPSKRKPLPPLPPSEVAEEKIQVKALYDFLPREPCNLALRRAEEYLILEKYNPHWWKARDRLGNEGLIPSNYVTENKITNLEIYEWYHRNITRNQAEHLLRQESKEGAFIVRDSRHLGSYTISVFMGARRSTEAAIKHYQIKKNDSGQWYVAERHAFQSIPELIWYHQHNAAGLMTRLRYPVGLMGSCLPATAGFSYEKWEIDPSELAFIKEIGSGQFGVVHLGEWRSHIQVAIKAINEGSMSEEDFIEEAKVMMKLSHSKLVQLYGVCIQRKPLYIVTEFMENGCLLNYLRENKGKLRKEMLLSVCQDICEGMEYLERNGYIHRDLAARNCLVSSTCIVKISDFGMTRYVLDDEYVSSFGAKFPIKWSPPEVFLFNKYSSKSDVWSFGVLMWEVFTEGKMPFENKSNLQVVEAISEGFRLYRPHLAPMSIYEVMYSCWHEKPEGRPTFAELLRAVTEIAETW
Source text: as §1

[5] = both sexes, Cohort 7, 15 mg once daily, Day 1, mean
[6] = Cohort 7, 15 mg once daily, Day 10, mean
[7] = oral, 5 mg, Cohort 1, 5 mg single dose
[8] = oral, 5 mg, Cohort 4, 5 mg (+10 PBO) single dose
[9] = oral, 15 mg, Cohort 2, 15 mg single dose
[10] = oral, 45 mg, Cohort 3, 45 mg single dose
[11] = oral, 100 mg, Cohort 5, 100 mg single dose
[12] = oral, 200 mg, Cohort 6, 200 mg single dose

C=CC(=O)N1CCC[C@@H](c2c(F)cc(C(N)=O)c3[nH]c4c(c23)CCCCC4)C1 [Compound 1, (S)-1-(1-acryloylpiperidin-3-yl)-2-fluoro-5,6,7,8,9,10-hexahydrocyclohepta[b]indole-4-carboxamide]
Tmax [1]: 1.5 h | kinase selectivity (349 kinases): high kinase selectivity | accumulation upon once-daily dosing ([2]; 15 mg once daily for 10 days): Minimal to no accumulation | Tmax ([2]; Cohort 7, 15 mg once daily, Day 1, median): 1.5 br | Tmax ([2]; Cohort 7, 15 mg once daily, Day 10, median): 1.5 br | half-life ([2]; both sexes, MAD cohort, 15 mg once daily for 10 days, read-out: terminal half-life (converted)): ~3 h | Cmax [2, 5]: 85.8 ng/mL | AUC(0-inf) [2, 5]: 312 ng·h/mL | half-life ([2]; Cohort 7, 15 mg once daily, Day 1, median, read-out: T1/2 (converted)): 3.19 h | half-life ([2]; Cohort 7, 15 mg once daily, Day 10, median, read-out: T1/2 (converted)): 3.37 h | Cmax [2, 6]: 102 ng/mL | AUC(0-inf) [2, 6]: 353 ng·h/mL | AUC(0-inf) [3, 7]: 62.1 ng·h/mL | Cmax [3, 7]: 22.5 ng/mL | half-life ([3]; oral, 5 mg, Cohort 1, 5 mg single dose, median, read-out: T1/2 (converted)): 2.77 h | Tmax ([3]; oral, 5 mg, Cohort 1, 5 mg single dose, median, read-out: Tmax): 2 h | AUC(0-inf) [3, 8]: 121 ng·h/mL | Cmax [3, 8]: 36 ng/mL | half-life ([3]; oral, 5 mg, Cohort 4, 5 mg (+10 PBO) single dose, median, read-out: T1/2 (converted)): 3.33 h | Tmax ([3]; oral, 5 mg, Cohort 4, 5 mg (+10 PBO) single dose, median, read-out: Tmax): 1.75 h | AUC(0-inf) [3, 9]: 339 ng·h/mL | Cmax [3, 9]: 124 ng/mL | half-life ([3]; oral, 15 mg, Cohort 2, 15 mg single dose, median, read-out: T1/2 (converted)): 3.6 h | Tmax ([3]; oral, 15 mg, Cohort 2, 15 mg single dose, median, read-out: Tmax): 1 h | AUC(0-inf) [3, 10]: 859 ng·h/mL | Cmax [3, 10]: 283 ng/mL | half-life ([3]; oral, 45 mg, Cohort 3, 45 mg single dose, median, read-out: T1/2 (converted)): 3.4 h | Tmax ([3]; oral, 45 mg, Cohort 3, 45 mg single dose, median, read-out: Tmax): 1.5 h | AUC(0-inf) [3, 11]: 2290 ng·h/mL | Cmax [3, 11]: 555 ng/mL | half-life ([3]; oral, 100 mg, Cohort 5, 100 mg single dose, median, read-out: T1/2 (converted)): 4.29 h | Tmax ([3]; oral, 100 mg, Cohort 5, 100 mg single dose, median, read-out: Tmax): 1.5 h | AUC(0-inf) [3, 12]: 4480 ng·h/mL | Cmax [3, 12]: 814 ng/mL | half-life ([3]; oral, 200 mg, Cohort 6, 200 mg single dose, median, read-out: T1/2 (converted)): 4.5 h | Tmax ([3]; oral, 200 mg, Cohort 6, 200 mg single dose, median, read-out: Tmax): 3 h | Tmax ([3]; po, healthy subjects, single oral dose, SAD cohorts, read-out: mean plasma Tmax): 1 to 3 h | half-life ([3]; po, healthy subjects, single oral dose, SAD cohorts, read-out: terminal half-life): 3 to 4 h | dose proportionality of exposure (AUCinf) ([3]; from 5 to 15 mg): greater than dose-proportional | dose proportionality of exposure (AUCinf) ([3]; from 15 to 200 mg): near dose-proportional | CNS penetration [4]: penetrant | inhibition at 1 µM (TXK): > 50%
